Where a SMILES comes first, the peptide text is derived from it. Bridges are numbered along the chain shown (N, C = ends). [ ]: non-standard residue; d: D form. The star is where a group is joined. Bip = N[C@@H](Cc1ccc(-c2ccccc2)cc1)C(=O)O; Phe(3-Me) = Cc1cccc(C[C@H](N)C(=O)O)c1; 4Pal = N[C@@H](Cc1ccncc1)C(=O)O; Cha = N[C@@H](CC1CCCCC1)C(=O)O; Carboxymethyl = O=C(O)C*; NMeA = CN[C@@H](C)C(=O)O; Orn = NCCC[C@H](N)C(=O)O; Aun = NCCCCCCCCCCC(=O)O; Dab = NCC[C@H](N)C(=O)O; AEEA = NCCOCCOCC(=O)O

Among the data in patent US20260070945A1, “MACROCYCLIC IMMUNOMODULATORS” (Bristol-Myers Squibb Company, priority 2022, published 2026) are IC50 values, retold here.

T1 sequence (Q15116 25-288): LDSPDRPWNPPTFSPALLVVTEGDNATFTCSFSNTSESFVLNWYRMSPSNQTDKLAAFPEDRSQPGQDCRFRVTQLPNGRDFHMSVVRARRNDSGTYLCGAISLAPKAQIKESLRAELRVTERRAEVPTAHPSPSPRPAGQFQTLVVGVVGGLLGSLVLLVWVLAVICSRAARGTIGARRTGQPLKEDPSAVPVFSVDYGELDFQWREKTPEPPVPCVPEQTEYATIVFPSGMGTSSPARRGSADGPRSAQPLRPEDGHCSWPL

The experiment concerns the target T1, PD-1/PD-L1 interaction (PE-labeled human PD-L1-Ig binding to Jurkat cell line over-expressing human PD-1) (Homo sapiens, UniProt Q15116).
T1 construct: expressed in transfected cells; host or cells: Jurkat
As to the kind of experiment: Jurkat-PD-1 Cell Binding High-Content Screening Assay (CBA). The conditions noted are these: Jurkat-hPD-1 cells, PE-labeled PD-L1-Ig 20 nM final; read-out: Jurkat HPD1 PDL1 IC50. Put shortly:
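High-content imaging read-out of PE-PD-L1-Ig binding (20 nM final, 1 h) to Jurkat-hPD-1 cells, after 2 h compound exposure at 37 °C in DMEM with 10% FCS. Nuclei counterstained with Hoechst 33342 after paraformaldehyde fixation.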
Consider `Cc1cccc(C[C@@H]2NC(=O)[C@H](CC(=O)O)NC(=O)[C@H](Cc3ccc(OCC(=O)O)cc3)NC(=O)[C@H]([C@@H](C)O)NC(=O)CSC[C@@H](C(=O)N[C@@H](CCN)C(=O)NCCOCCOCC(=O)NCCCCCCCCCCC(=O)O)NC(=O)[C@H](CCC(=O)O)NC(=O)[C@H](C(C)C)NC(=O)[C@H](CC3CCCCC3)NC(=O)[C@H](CCN)NC(=O)[C@@H](CC(C)C)NC(=O)[C@H](C)N(C)C(=O)[C@H](Cc3ccc(OCC(=O)O)cc3)NC(=O)[C@H](Cc3ccc(-c4ccccc4)cc3)NC(=O)[C@H](Cc3ccc(OCC(=O)O)cc3)NC2=O)c1` [Example 1369] ({CH2CO}-TY(Carboxymethyl)D[Phe(3-Me)]Y(Carboxymethyl)[Bip]Y(Carboxymethyl)[NMeA][dL][Dab][Cha]VEC[Dab][AEEA][Aun]-OH; thioether N-14), for which the half-inhibitory concentration (IC50) (usually the concentration that gives 50% inhibition) was found to be 0.012 µM.
In the case of `Cc1cccc(C[C@@H]2NC(=O)[C@H](CC(=O)O)NC(=O)[C@H](Cc3ccc(OCC(=O)O)cc3)NC(=O)[C@H]([C@@H](C)O)NC(=O)CSC[C@@H](C(=O)N[C@@H](CCN)C(=O)NCCOCCOCC(=O)NCCCCCCCCCCC(=O)O)NC(=O)[C@H](CC(N)=O)NC(=O)[C@H](C(C)C)NC(=O)[C@H](CC3CCCCC3)NC(=O)[C@H](CCN)NC(=O)[C@@H](CC(C)C)NC(=O)[C@H](C)N(C)C(=O)[C@H](Cc3ccc(OCC(=O)O)cc3)NC(=O)[C@H](Cc3ccc(-c4ccccc4)cc3)NC(=O)[C@H](Cc3ccc(OCC(=O)O)cc3)NC2=O)c1` [Example 1370] ({CH2CO}-TY(Carboxymethyl)D[Phe(3-Me)]Y(Carboxymethyl)[Bip]Y(Carboxymethyl)[NMeA][dL][Dab][Cha]VNC[Dab][AEEA][Aun]-OH; thioether N-14), the IC50 amounted to 0.0139 µM.
Under `Cc1cccc(C[C@@H]2NC(=O)[C@H](CC(=O)O)NC(=O)[C@H](Cc3ccc(OCC(=O)O)cc3)NC(=O)[C@H]([C@@H](C)O)NC(=O)CSC[C@@H](C(=O)N[C@@H](CCCN)C(=O)NCCOCCOCC(=O)NCCCCCCCCCCC(=O)O)NC(=O)[C@H]([C@@H](C)O)NC(=O)[C@H](C(C)C)NC(=O)[C@H](CC3CCCCC3)NC(=O)[C@H](CCN)NC(=O)[C@@H](CC(C)C)NC(=O)[C@H](C)N(C)C(=O)[C@H](Cc3ccc(OCC(=O)O)cc3)NC(=O)[C@H](Cc3ccc(-c4ccccc4)cc3)NC(=O)[C@H](Cc3ccc(OCC(=O)O)cc3)NC2=O)c1` [Example 1371] ({CH2CO}-TY(Carboxymethyl)D[Phe(3-Me)]Y(Carboxymethyl)[Bip]Y(Carboxymethyl)[NMeA][dL][Dab][Cha]VTC[Orn][AEEA][Aun]-OH; thioether N-14) stands 0.0275 µM; under `Cc1cccc(C[C@@H]2NC(=O)[C@H](CC(=O)O)NC(=O)[C@H](Cc3ccc(OCC(=O)O)cc3)NC(=O)[C@H]([C@@H](C)O)NC(=O)CSC[C@@H](C(=O)N[C@@H](CCCN)C(=O)NCCOCCOCC(=O)NCCCCCCCCCCC(=O)O)NC(=O)[C@H](CO)NC(=O)[C@H](C(C)C)NC(=O)[C@H](CC3CCCCC3)NC(=O)[C@H](CCN)NC(=O)[C@@H](CC(C)C)NC(=O)[C@H](C)N(C)C(=O)[C@H](Cc3ccc(OCC(=O)O)cc3)NC(=O)[C@H](Cc3ccc(-c4ccccc4)cc3)NC(=O)[C@H](Cc3ccc(OCC(=O)O)cc3)NC2=O)c1` [Example 1372] ({CH2CO}-TY(Carboxymethyl)D[Phe(3-Me)]Y(Carboxymethyl)[Bip]Y(Carboxymethyl)[NMeA][dL][Dab][Cha]VSC[Orn][AEEA][Aun]-OH; thioether N-14), 0.028 µM.
`Cc1cccc(C[C@@H]2NC(=O)[C@H](CC(=O)O)NC(=O)[C@H](Cc3ccc(OCC(=O)O)cc3)NC(=O)[C@H]([C@@H](C)O)NC(=O)CSC[C@@H](C(=O)N[C@@H](CCCN)C(=O)NCCOCCOCC(=O)NCCCCCCCCCCC(=O)O)NC(=O)[C@H](CCC(=O)O)NC(=O)[C@H](C(C)C)NC(=O)[C@H](CC3CCCCC3)NC(=O)[C@H](CCN)NC(=O)[C@@H](CC(C)C)NC(=O)[C@H](C)N(C)C(=O)[C@H](Cc3ccc(OCC(=O)O)cc3)NC(=O)[C@H](Cc3ccc(-c4ccccc4)cc3)NC(=O)[C@H](Cc3ccc(OCC(=O)O)cc3)NC2=O)c1` [Example 1373] ({CH2CO}-TY(Carboxymethyl)D[Phe(3-Me)]Y(Carboxymethyl)[Bip]Y(Carboxymethyl)[NMeA][dL][Dab][Cha]VEC[Orn][AEEA][Aun]-OH; thioether N-14): the IC50 was determined as 0.0317 µM.
On to `Cc1cccc(C[C@@H]2NC(=O)[C@H](CC(=O)O)NC(=O)[C@H](Cc3ccc(OCC(=O)O)cc3)NC(=O)[C@H]([C@@H](C)O)NC(=O)CSC[C@@H](C(=O)N[C@@H](CCCN)C(=O)NCCOCCOCC(=O)NCCCCCCCCCCC(=O)O)NC(=O)[C@H](CC(N)=O)NC(=O)[C@H](C(C)C)NC(=O)[C@H](CC3CCCCC3)NC(=O)[C@H](CCN)NC(=O)[C@@H](CC(C)C)NC(=O)[C@H](C)N(C)C(=O)[C@H](Cc3ccc(OCC(=O)O)cc3)NC(=O)[C@H](Cc3ccc(-c4ccccc4)cc3)NC(=O)[C@H](Cc3ccc(OCC(=O)O)cc3)NC2=O)c1` [Example 1374] ({CH2CO}-TY(Carboxymethyl)D[Phe(3-Me)]Y(Carboxymethyl)[Bip]Y(Carboxymethyl)[NMeA][dL][Dab][Cha]VNC[Orn][AEEA][Aun]-OH; thioether N-14), for which the IC50 is 0.0174 µM.
Turning to `Cc1cccc(C[C@@H]2NC(=O)[C@H](CC(=O)O)NC(=O)[C@H](Cc3ccc(OCC(=O)O)cc3)NC(=O)[C@H]([C@@H](C)O)NC(=O)CSC[C@@H](C(=O)N[C@@H](CCN)C(=O)NCCOCCOCC(=O)NCCCCCCCCCCC(=O)O)NC(=O)[C@H]([C@@H](C)O)NC(=O)[C@H](C(C)C)NC(=O)[C@H](CC3CCCCC3)NC(=O)[C@H](CCC(=O)O)NC(=O)[C@@H](CC(C)C)NC(=O)[C@H](C)N(C)C(=O)[C@H](Cc3ccc(OCC(=O)O)cc3)NC(=O)[C@H](Cc3ccc(-c4ccccc4)cc3)NC(=O)[C@H](Cc3ccc(OCC(=O)O)cc3)NC2=O)c1` [Example 1375] ({CH2CO}-TY(Carboxymethyl)D[Phe(3-Me)]Y(Carboxymethyl)[Bip]Y(Carboxymethyl)[NMeA][dL]E[Cha]VTC[Dab][AEEA][Aun]-OH; thioether N-14), the IC50 was 0.0318 µM.
Under `Cc1cccc(C[C@@H]2NC(=O)[C@H](CC(=O)O)NC(=O)[C@H](Cc3ccc(OCC(=O)O)cc3)NC(=O)[C@H]([C@@H](C)O)NC(=O)CSC[C@@H](C(=O)N[C@@H](CCN)C(=O)NCCOCCOCC(=O)NCCCCCCCCCCC(=O)O)NC(=O)[C@H](CCCN)NC(=O)[C@H](C(C)C)NC(=O)[C@H](CC3CCCCC3)NC(=O)[C@H](CCC(=O)O)NC(=O)[C@@H](CC(C)C)NC(=O)[C@H](C)N(C)C(=O)[C@H](Cc3ccc(OCC(=O)O)cc3)NC(=O)[C@H](Cc3ccc(-c4ccccc4)cc3)NC(=O)[C@H](Cc3ccc(OCC(=O)O)cc3)NC2=O)c1` [Example 1376] ({CH2CO}-TY(Carboxymethyl)D[Phe(3-Me)]Y(Carboxymethyl)[Bip]Y(Carboxymethyl)[NMeA][dL]E[Cha]V[Orn]C[Dab][AEEA][Aun]-OH; thioether N-14) stands 0.0458 µM; under `Cc1cccc(C[C@@H]2NC(=O)[C@H](CC(=O)O)NC(=O)[C@H](Cc3ccc(OCC(=O)O)cc3)NC(=O)[C@H]([C@@H](C)O)NC(=O)CSC[C@@H](C(=O)N[C@@H](CCN)C(=O)NCCOCCOCC(=O)NCCCCCCCCCCC(=O)O)NC(=O)[C@H](CC(N)=O)NC(=O)[C@H](C(C)C)NC(=O)[C@H](CC3CCCCC3)NC(=O)[C@H](CCC(=O)O)NC(=O)[C@@H](CC(C)C)NC(=O)[C@H](C)N(C)C(=O)[C@H](Cc3ccc(OCC(=O)O)cc3)NC(=O)[C@H](Cc3ccc(-c4ccccc4)cc3)NC(=O)[C@H](Cc3ccc(OCC(=O)O)cc3)NC2=O)c1` [Example 1377] ({CH2CO}-TY(Carboxymethyl)D[Phe(3-Me)]Y(Carboxymethyl)[Bip]Y(Carboxymethyl)[NMeA][dL]E[Cha]VNC[Dab][AEEA][Aun]-OH; thioether N-14), 0.031 µM.
As for `CC(C)C[C@H]1NC(=O)[C@H](C)N(C)C(=O)[C@H](Cc2ccc(OCC(=O)O)cc2)NC(=O)[C@H](Cc2ccc(-c3ccccc3)cc2)NC(=O)[C@H](Cc2ccc(OCC(=O)O)cc2)NC(=O)[C@H](Cc2c[nH]c3ccccc23)NC(=O)[C@H](CC(=O)O)NC(=O)[C@H](Cc2ccncc2)NC(=O)[C@H](Cc2ccc(OCC(=O)O)cc2)NC(=O)CSC[C@@H](C(=O)N[C@@H](CCN)C(=O)NCCOCCOCC(=O)NCCCCCCCCCCC(=O)O)NC(=O)[C@H]([C@@H](C)O)NC(=O)[C@H](C(C)C)NC(=O)[C@H](CC2CCCCC2)NC(=O)[C@H](CC(N)=O)NC1=O` [Example 1378] ({CH2CO}-Y(Carboxymethyl)[4Pal]DWY(Carboxymethyl)[Bip]Y(Carboxymethyl)[NMeA][dL]N[Cha]VTC[Dab][AEEA][Aun]-OH; thioether N-14), the IC50 amounted to 0.0948 µM.
In the case of `CC(C)C[C@H]1NC(=O)[C@H](C)N(C)C(=O)[C@H](Cc2ccc(OCC(=O)O)cc2)NC(=O)[C@H](Cc2ccc(-c3ccccc3)cc2)NC(=O)[C@H](Cc2ccc(OCC(=O)O)cc2)NC(=O)[C@H](Cc2c[nH]c3ccccc23)NC(=O)[C@H](CC(=O)O)NC(=O)[C@H](Cc2ccncc2)NC(=O)[C@H](Cc2ccc(OCC(=O)O)cc2)NC(=O)CSC[C@@H](C(=O)N[C@@H](CCCN)C(=O)NCCOCCOCC(=O)NCCCCCCCCCCC(=O)O)NC(=O)[C@H]([C@@H](C)O)NC(=O)[C@H](C(C)C)NC(=O)[C@H](CC2CCCCC2)NC(=O)[C@H](CC(N)=O)NC1=O` [Example 1379] ({CH2CO}-Y(Carboxymethyl)[4Pal]DWY(Carboxymethyl)[Bip]Y(Carboxymethyl)[NMeA][dL]N[Cha]VTC[Orn][AEEA][Aun]-OH; thioether N-14), the IC50 amounted to 0.175 µM.
